Measured values from patent publication US8067189B2, “Methods for determining sensitivity to vascular endothelial growth factor receptor-2 modulators by measuring the level of collagen type IV” (Bristol-Myers Squibb Company, priority 2005, dated 2011).

Key:
Collagen type IV = assay: ELISA of blood samples from tumor bearing mice; type: in vivo, mouse; settings: 100 mg/kg 1 qd×14 days
Method: (§1) Tumors were propagated in nude mice as subcutaneous (sc) transplants using L2987 and HCT-116 cancer cell lines. Tumor passage occurred approximately every two to four weeks. Tumors were then allowed to grow to the pre-determined size window (100-200 mm^3, tumors outside the range were excluded) and animals were evenly distributed to various treatment and control groups. Animals were treated with the example VEGFR-2 inhibitor (100 mg/kg 1 qd×14 days). Treated animals were checked daily for treatment related toxicity/mortality. Each group of animals was weighed before the initiation of treatment (Wt1) and then again following the last treatment dose (Wt2). […] Tumor response was determined by measurement of tumors with a caliper twice a week, until the tumors reached a predetermined target size. […]
(§2) An ELISA method for the detection and measurement of Collagen Type IV and VE-Cadherin on human plasma or any biological sample where the proteins must be detected and measured is described. […] The reaction was terminated by addition of acid and absorbance was measured at 450 nm. A standard curve was prepared from collagen type IV standard dilutions and collagen type IV samples concentration determined. […] The reaction was terminated by addition of acid and absorbance was measured at 450 nm. A standard curve was prepared from VE-cadherin standard dilutions and VE-cadherin samples concentration determined. […]

VE-Cadherin = assay: ELISA of blood samples from tumor bearing mice; type: in vivo, mouse; settings: 100 mg/kg 1 qd×14 days
Method: as §1, §2

L2987 tumor xenograft = assay: In vivo antitumor testing, L2987 tumor xenograft model; design: species or system mouse; settings: L2987, nude mice, 100 mg/kg 1 qd×26
Method: In this example, the Table 2 biomarkers were identified using mouse xenograft tumor models that were treated with the example VEGFR-2 inhibitor.
as §1, with “tumor fragments obtained from donor mice.” for “L2987 and HCT-116 cancer cell lines.”, “(usually between 100-200 mg,” for “(100-200 mm^3,”, “qd×26).” for “qd×14 days).”, “toxicity/mortality.” for “toxicity/mortality. Each group of animals was weighed before the initiation of treatment (Wt1) and then again following the last treatment dose (Wt2).”, “size of 1 gm or became necrotic.” for “size.”
Antitumor activity was determined in terms of primary tumor growth inhibition. This was determined in two ways: (i) calculating the relative median tumor weight (MTW) of treated (T) and control (C) mice at various time points (effects were expressed as % T/C); and (ii) calculating the tumor growth delay (T−C value), defined as the difference in time (days) required for the treated tumors (T) to reach a predetermined target size compared to those of the control group (C). […]

SMILES: Cc1cc2c(F)c(Oc3ncnn4cc(OC[C@@H](C)OC(=O)[C@H](C)N)c(C)c34)ccc2[nH]1 [example VEGFR-2 inhibitor, [(1R),2S]-2-Aminopropionic acid 2-[4-(4-fluoro-2-methyl-1H-indol-5-yloxy)-5-methylpyrrolo[2,1-f][1,2,4]triazin-6-yloxy]-1-methylethyl ester]
- amount of Collagen type IV protein detected in the blood following treatment (Collagen type IV): decreased to levels observed in the healthy mice bearing no tumors
- amount of VE-Cadherin protein detected in the blood following treatment (VE-Cadherin): decreased to levels observed in the healthy mice bearing no tumors
- efficacy in mouse xenograft tumor model (L2987 tumor xenograft): highly responsive
